Earlier results in EP0656010B1, “Use of peptides causing a immune response for the preparation of medicaments to induce the suppression of the immune reaction” (priority 1992, dated 2001).

Test system: sujets infectés par les VIH-1
Settings: subjects infected with HIV-1

Row | Sequence | réponse immunitaire cellulaire dirigée contre le peptide
1 | GGEFFYCNSTQL | réponse immunitaire cellulaire
2 | SVEINCTRPNNNTRKSI | réponse immunitaire cellulaire
